Source: ChEMBL document CHEMBL1158696, “Bioactive asterosaponins from the starfish Culcita novaeguineae” (J Nat Prod, 2005)

Experiments:
Bel-7402 = assay: Cytotoxicity against human Bel7402 cells after 72 hrs by SRB assay; assay type: functional, cell-based; conditions: Bel-7402, 72 h
K562 = assay: Cytotoxicity against human K562 cells after 72 hrs by MTT assay; assay type: functional, cell-based; conditions: K562, 72 h

SMILES	IC50 (Bel-7402)	IC50 (K562)
CC(C)[C@H](C)[C@@H]1O[C@H]1[C@](C)(O)[C@H]1CC[C@H]2[C@@H]3C[C@H](O[C@@H]4O[C@H](CO)[C@@H](O)[C@H](O[C@@H]5O[C@H](C)[C@@H](O[C@@H]6OC[C@H](O)[C@H](O)[C@H]6O[C@@H]6O[C@H](C)[C@H](O)[C@H](O)[C@H]6O)[C@H](O)[C@H]5O[C@@H]5O[C@H](C)[C@H](O)[C@H](O)[C@H]5O)[C@H]4O)[C@H]4C[C@@H](OS(=O)(=O)[O-])CC[C@]4(C)C3=CC[C@]12C.[Na+] [NOVAEGUINOSIDE II]	4.1 µg/mL	4.9 µg/mL
CC(C)[C@H](C)[C@@H]1O[C@H]1[C@](C)(O)[C@H]1CC[C@H]2[C@@H]3C[C@H](O[C@@H]4O[C@H](CO)[C@@H](O)[C@H](O[C@@H]5O[C@H](C)[C@@H](O[C@@H]6O[C@H](C)[C@H](O)[C@H](O)[C@H]6O[C@@H]6O[C@H](C)[C@H](O)[C@H](O)[C@H]6O)[C@H](O)[C@H]5O[C@@H]5O[C@H](C)[C@H](O)[C@H](O)[C@H]5O)[C@H]4O)[C@H]4C[C@@H](OS(=O)(=O)[O-])CC[C@]4(C)C3=CC[C@]12C.[Na+] [NOVAEGUINOSIDE I]	9.2 µg/mL	8.6 µg/mL
CC(C)CC(=O)C[C@](C)(O)[C@H]1CC[C@H]2[C@@H]3C[C@H](O[C@@H]4O[C@H](C)[C@@H](O)[C@H](O[C@@H]5OC[C@@H](O[C@@H]6O[C@H](C)[C@H](O)[C@H](O)[C@H]6O[C@@H]6O[C@H](C)[C@H](O)[C@H](O)[C@H]6O)[C@H](O)[C@H]5O[C@@H]5O[C@H](C)[C@H](O)[C@H](O)[C@H]5O)[C@H]4O)[C@H]4C[C@@H](OS(=O)(=O)[O-])CC[C@]4(C)C3=CC[C@@]21C.[Na+] [regularoside B]	14.5 µg/mL	17.4 µg/mL
